Test results published in PubChem BioAssay (NCI).
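In this assay, cells in 96-well plates receive the compound at five concentrations for 48 hours. Endpoints are linearly interpolated between the surrounding concentrations. GI50 = concentration required for 50% inhibition of growth. At the TGI there is no net growth.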

Key:
Assay in all cases: DTP human tumour cell line panel, 48 h
A549 NSCLC = test system: A549 NSCLC
OVCAR-3 ovarian = test system: OVCAR-3 ovarian
ACHN renal = test system: ACHN renal
T-47D breast = test system: T-47D breast
MCF7 breast = test system: MCF7 breast
SF-268 CNS = test system: SF-268 CNS
SW-620 colon = test system: SW-620 colon
NCI/ADR-RES ovarian = test system: NCI/ADR-RES ovarian
CAKI-1 renal = test system: CAKI-1 renal
MOLT-4 leukemia = test system: MOLT-4 leukemia

Structure (SMILES)	GI50 (A549 NSCLC) [µM]	TGI (A549 NSCLC) [µM]	GI50 (OVCAR-3 ovarian) [µM]	TGI (OVCAR-3 ovarian) [µM]	GI50 (ACHN renal) [µM]	TGI (ACHN renal) [µM]	GI50 (T-47D breast) [µM]	TGI (T-47D breast) [µM]	GI50 (MCF7 breast) [µM]	TGI (MCF7 breast) [µM]	GI50 (SF-268 CNS) [µM]	TGI (SF-268 CNS) [µM]	GI50 (SW-620 colon) [µM]	TGI (SW-620 colon) [µM]	GI50 (NCI/ADR-RES ovarian) [µM]	TGI (NCI/ADR-RES ovarian) [µM]	GI50 (CAKI-1 renal) [µM]	TGI (CAKI-1 renal) [µM]	TGI (MOLT-4 leukemia) [µM]	GI50 (MOLT-4 leukemia) [µM]
O=C(O)c1cccc(COc2ccc([N+](=O)[O-])cc2Cl)c1	> 100	> 100	50.3	> 100	> 100	> 100	> 100	> 100	> 100	> 100	7.71	85.6	> 100	> 100	> 100	> 100	> 100	> 100		
COC(=O)/C([Se]c1c(C)cc(C)cc1C)=C(/[Se]c1c(C)cc(C)cc1C)C(=O)OC		> 100		> 100		> 100						> 100		> 100				> 100	> 100	
COc1cc2c(cc1OC)[C@H]1CN3CCC[C@H]3C=C1c1ccc(OC)c(O)c1-2						0.0154		0.132										0.000133		
c1coc(-c2c3ccc(=[N+]4CCCCC4)cc-3oc3cc(N4CCCCC4)ccc23)c1			0.033	0.126	0.0327	0.12					0.0667	0.472					0.0313	0.105	0.903	0.0463
COc1cc(/C=C\c2cc(OC)c(OC)c(OC)c2)cc(N/C=C\C(=O)c2c[nH]c3ccccc23)c1OC	14.5	34.8	1.72	3.21	1.75	3.39	1.55	4.51	0.72	3.15	3.57	15.6	1.63	3.31	3.48	19.3	1.58	2.95		
C=Cc1ccc(C)[n+](C[Si](C)(C)O[Si](C)(C)C[n+]2cc(C=C)ccc2C)c1		> 100		> 100		> 100						> 100		> 100				> 100	> 100	
Cc1ccc(C)c(N2C/C(=N\NC(=O)CC#N)C(c3nc4ccccc4s3)C(=O)C2=O)c1 (stereo not drawn)		> 100		> 100		> 100						> 100		> 100				> 100	> 100	
Cc1[nH]c2ccccc2c1C1Cc2ccccc2N1C(=O)C#Cc1ccc([N+](=O)[O-])cc1 (stereo not drawn)		> 100		> 100		> 100						> 100		> 100					> 100	
CC1(C)CN=C(NN=C(/C=C/c2ccc(C(F)(F)F)cc2)/C=C/c2ccc(C(F)(F)F)cc2)NC1	1.36	2.91	1.67	3.05	1.19	2.48	1.49	3.03	1.4	2.92	1.51	3.12	1.14	2.66	1.4	3.03	1.09	2.37		
O=C(Cc1nc2c3c(ccc2[nH]c1=O)C(=O)c1ccccc1C3=O)C(=O)Nc1ccccc1[N+](=O)[O-]		> 100		25.6		33.9						31.5		28.6				62.9	23.2	
COc1c(C)n(CCO)ccc1=O		> 100		> 100		> 100						> 100		> 100				> 100	> 100	
Cc1ccccc1C1=[N+]([O-])c2ccc(Cl)cc2C1=O		34.2		7.17		25.5						33.1		40.9					24.3	
CC1=C(C#N)C(=O)CC(c2ccc(Cl)cc2)N(C)N1 (stereo not drawn)		> 100				> 100						> 100		> 100				> 100	> 100	
O=C(/C(=C\c1c(-c2ccccc2)[nH]c2ccccc12)S(=O)(=O)c1ccccc1)c1ccccc1	35	> 100	> 100	> 100	6.67	> 100	3.44	> 100	5.63	> 100	> 100	> 100			> 100	> 100	3.13	> 100		
Cc1cccc(C2=C/C(=C(\SS/C(C(=O)c3ccc(OCC(=O)O)c(Cl)c3Cl)=C3\C=C(c4cccc(C)c4)SS3)C(=O)c3ccc(OCC(=O)O)c(Cl)c3Cl)SS2)c1		> 100		50.8		37.7						39.6		49.8				66.3	40.2	
COc1ccc(C(=O)c2cc(OC)c(OC)c(OC)c2)cc1OC		> 100		9.47		> 100				> 100		> 100		> 100		> 100			> 100	
O=c1[nH]cnc(NC2C=C(CO)C(O)C2O)c1[N+](=O)[O-] (stereo not drawn)		> 100		> 100		> 100						> 100		> 62				> 100	> 100	
COc1cc(/C=C2\[C@H]3c4c(c(OC)c(C)c(OC)c4OC)CC(C(=O)N2Cc2ccccc2)N3C)c(OC)c(C)c1OC		> 100		31.2		78.7						61.3		41.5				73.6	56.9	
Cc1cc2c(c(C(N)=O)c1C)-c1ccccc1C2=O		> 100		> 100		> 100						> 100		> 100					> 100	
CC(O)CCCOC(c1ccccc1)(c1ccccc1)c1ccccc1 (stereo not drawn)		27.3		27.3		27.8				28.3		29.8		32.3		24		29.9	> 50.9	
CCOC(=O)NC(=O)c1cn(C2CCCCC2)c(=O)[nH]c1=O		> 100		> 100		> 100						> 100		> 100				> 100	> 100	
CC1=NN(C(=O)CC(=O)Nc2ccccc2F)C(=O)C1N=Nc1ccccc1[N+](=O)[O-] (stereo not drawn)		> 100		> 100								> 100		> 100				> 100	> 100	
